What all share (format): cell-based
The test system of one experiment is Jurkat cells. The experiment in a line: Jurkat cell killing experiment (CellTiter-Glo cell viability). The settings on record: Homo sapiens, 48 h incubation, CTG luminescence. The protocol:
Jurkat cell lines were purchased from ATCC (Cat #ATCC® TIB-152™), RPMI1640 media were purchased from ATCC (Cat #ATCC® 30-2001™), FBS was purchased from Gibco (Cat #10091148), celltiter-glo luminescent cell viability assay was purchased from promega (Cat #G7572), and 96-well plates were purchased from coming (Cat #3610).
(§1) The effect of compounds on the growth of Jurkat cells was determined by measuring cell viability and growth rate. Firstly, cells in the logarithmic growth phase were collected and centrifuged, and the culture supernatant was discarded. The centrifuged cells were resuspended in a fresh complete medium, and the cell density was adjusted to 5×10^4 cells/mL. The resuspended cells were inoculated into two identical opaque 96-well cell culture plates at 100 μL of cell suspension per well, and the cell culture plates were incubated in a cell incubator at 37° C. for 4 h. After 4 h, dilutions (20 μL) of compounds with different concentrations were added. After one of the cell plates was cooled to room temperature, 60 μL of CTG reagent was added, and the luminescence values were read on the instrument as G0. The other one was incubated in a cell incubator for 48 h. After 48 h, 60 μL of CTG reagent was added, and the luminescence values were read on the instrument as G3.
(§2) According to the corresponding proliferation rate and concentration of each gradient concentration well, a gradient curve of cell proliferation was fitted using XLFit software, and the GI50 values of compounds were calculated.

The target of the next experiment is T1, GSPT1 (Homo sapiens, UniProt P15170+Q96SW2).
T1 construct: host or cells: HEK293
In words: Degradation of GSPT1 by the compounds (HiBiT signal in GSPT1/HEK293 hibit cells). The conditions noted are these: 6 h incubation, Nano Glo HiBiT Lytic Detection. In short, it runs like this:
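HEK293 cells with HiBiT-tagged GSPT1 seeded overnight, then treated with serial compound dilutions for 6 h at 37° C. Remaining GSPT1 measured by HiBiT lytic luminescence; DC50 from fitted degradation-concentration curve.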
(In general: With HiBiT, luminescence reflects the tagged protein that the partner subunit can reach.)

The test system of a further experiment is Hep3B cells. In words: Hep3B cell killing experiment (CellTiter-Glo cell viability). The settings on record: Homo sapiens, 48 h incubation, CTG luminescence. The protocol:
Hep3B cell lines were purchased from ATCC (Cat #ATCC® HB-8064™), EMEM media were purchased from ATCC (Cat #ATCC® 30-2003™), FBS was purchased from Gibco (Cat #10091148), celltiter-glo luminescent cell viability assay was purchased from promega (Cat #G7572), and 96-well plates were purchased from coming (Cat #3610).
The effect of compounds on the growth of Hep3B cells was determined by measuring cell viability and growth rate. Firstly, the cells were digested with pancreatin, and the digestion was then terminated with medium. The cells were centrifuged, and the supernatant was discarded. The centrifuged cells were resuspended in a fresh complete medium, and the cell density was adjusted to 5×10^4 cells/mL. The resuspended cells were inoculated into two identical opaque 96-well cell culture plates at 100 μL of cell suspension per well, and the cell culture plates were incubated in a cell incubator at 37° C. overnight. The next day, dilutions (20 μL) of compounds with different concentrations were added. After one of the cell plates was cooled to room temperature, 60 μL of CTG reagent was added. The luminescence values were read on the instrument as G0. The other one was incubated in a cell incubator for 48 h. After 48 h, 60 μL of CTG reagent was added, and the luminescence values were read on the instrument as G3.
as §2

Another experiment relates to NCI-H929 cells. The experiment in a line: NCI-H929 cell killing experiment (CellTiter-Glo cell viability). The conditions noted are these: Homo sapiens, 48 h incubation, CTG luminescence. The protocol:
NCI-H929 cell lines were purchased from ATCC (Cat #ATCC® CRL-9068™), RPMI1640 media were purchased from ATCC (Cat #ATCC® 30-2001™), FBS was purchased from Gibco (Cat #10091148), celltiter-glo luminescent cell viability assay was purchased from promega (Cat #G7572), and 96-well plates were purchased from coming (Cat #3610).
as §1, with “2. Method The effect” for “The effect”, “growth of NCI-H929 cells was” for “growth of Jurkat cells was”
as §2
On the technique in general: In ATP-based viability assays light output follows the ATP content of the culture.

The next experiment has as its system Raji cells. The experiment in a line: Raji cell killing experiment (CellTiter-Glo cell viability). The settings on record: Homo sapiens, 48 h incubation, CTG luminescence. The protocol: Raji cell lines were purchased from ATCC (Cat #ATCC® CCL-86™), RPMI1640 media were purchased from ATCC (Cat #ATCC® 30-2001™), FBS was purchased from Gibco (Cat #10091148), celltiter-glo luminescent cell viability assay was purchased from promega (Cat #G7572), and 96-well plates were purchased from coming (Cat #3610).
as §1, with “Raji” for “Jurkat”
as §2

For another experiment, the system named is HL60 cells. The experiment in a line: HL60 cell killing experiment (CellTiter-Glo cell viability). The conditions noted are these: Homo sapiens, HL-60, 48 h incubation, CTG luminescence. In short, it runs like this: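 Cells seeded at 5×10^4 cells/mL, dosed after 4 h at 37 °C, then grown for 48 h. CellTiter-Glo luminescence read at the time of dosing (G0) and after 48 h (G3). GI50 fitted from proliferation rate versus concentration.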

Another experiment relates to SU-DHL-2 cells. In words: SU-DHL-2 cell killing experiment (CellTiter-Glo cell viability). The conditions noted are these: Homo sapiens, 48 h incubation, CTG luminescence. As for the experimental part: SU-DHL-2 cell lines were purchased from ATCC (Cat #ATCC® CRL-2956™), RPMI1640 media were purchased from ATCC (Cat #ATCC® 30-2001™), FBS was purchased from Gibco (Cat #10091148), celltiter-glo luminescent cell viability assay was purchased from promega (Cat #G7572), and 96-well plates were purchased from coming (Cat #3610).
as §1, with “SU-DHL-2” for “Jurkat”
as §2

In a further experiment the test system is THP-1 cells. In words: THP-1 cell killing experiment (CellTiter-Glo cell viability). The settings on record: Homo sapiens, 48 h incubation, CTG luminescence. As for the experimental part: THP-1 cell lines were purchased from ATCC (Cat #ATCC® TIB-202™), RPMI1640 media were purchased from ATCC (Cat #ATCC® 30-2001™), FBS was purchased from Gibco (Cat #10091148), celltiter-glo luminescent cell viability assay was purchased from promega (Cat #G7572), and 96-well plates were purchased from coming (Cat #3610).
as §1, with “THP-1” for “Jurkat”
as §2

Another experiment relates to Toledo cells. The experiment in a line: Toledo cell killing experiment (CellTiter-Glo cell viability). The conditions noted are these: Homo sapiens, 48 h incubation, CTG luminescence. The protocol:
Toledo cell lines were purchased from ATCC (Cat #ATCC® CRL-2631™), RPMI1640 media were purchased from ATCC (Cat #ATCC® 30-2001™), FBS was purchased from Gibco (Cat #10091148), celltiter-glo luminescent cell viability assay was purchased from promega (Cat #G7572), and 96-well plates were purchased from coming (Cat #3610).
as §1, with “Toledo” for “Jurkat”
as §2

T1 sequence (P15170 whole entry): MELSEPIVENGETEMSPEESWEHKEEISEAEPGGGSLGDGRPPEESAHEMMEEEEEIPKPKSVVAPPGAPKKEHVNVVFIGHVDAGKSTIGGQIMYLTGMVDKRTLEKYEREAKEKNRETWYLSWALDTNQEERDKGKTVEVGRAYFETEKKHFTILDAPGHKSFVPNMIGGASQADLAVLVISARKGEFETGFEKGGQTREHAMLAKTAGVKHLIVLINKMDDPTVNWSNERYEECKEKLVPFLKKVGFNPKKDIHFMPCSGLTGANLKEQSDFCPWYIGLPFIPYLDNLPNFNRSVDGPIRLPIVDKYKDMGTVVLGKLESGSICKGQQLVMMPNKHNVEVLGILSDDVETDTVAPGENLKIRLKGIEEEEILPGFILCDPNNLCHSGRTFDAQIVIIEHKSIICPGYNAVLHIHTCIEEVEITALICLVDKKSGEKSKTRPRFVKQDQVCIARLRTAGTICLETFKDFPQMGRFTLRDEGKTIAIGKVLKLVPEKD
T1 sequence (Q96SW2 whole entry): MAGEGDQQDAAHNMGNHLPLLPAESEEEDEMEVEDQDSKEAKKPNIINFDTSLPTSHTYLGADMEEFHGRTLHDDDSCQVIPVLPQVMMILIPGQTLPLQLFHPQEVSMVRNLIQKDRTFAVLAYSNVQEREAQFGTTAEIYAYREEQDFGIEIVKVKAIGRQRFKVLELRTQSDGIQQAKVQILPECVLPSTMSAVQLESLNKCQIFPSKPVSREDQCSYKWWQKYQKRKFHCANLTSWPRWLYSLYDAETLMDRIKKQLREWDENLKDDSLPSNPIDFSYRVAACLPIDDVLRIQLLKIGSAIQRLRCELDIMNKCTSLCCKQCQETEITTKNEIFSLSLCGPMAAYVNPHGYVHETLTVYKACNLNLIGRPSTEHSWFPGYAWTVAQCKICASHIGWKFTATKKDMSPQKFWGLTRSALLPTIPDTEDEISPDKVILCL
T1 sequence (Q16531 whole entry partner): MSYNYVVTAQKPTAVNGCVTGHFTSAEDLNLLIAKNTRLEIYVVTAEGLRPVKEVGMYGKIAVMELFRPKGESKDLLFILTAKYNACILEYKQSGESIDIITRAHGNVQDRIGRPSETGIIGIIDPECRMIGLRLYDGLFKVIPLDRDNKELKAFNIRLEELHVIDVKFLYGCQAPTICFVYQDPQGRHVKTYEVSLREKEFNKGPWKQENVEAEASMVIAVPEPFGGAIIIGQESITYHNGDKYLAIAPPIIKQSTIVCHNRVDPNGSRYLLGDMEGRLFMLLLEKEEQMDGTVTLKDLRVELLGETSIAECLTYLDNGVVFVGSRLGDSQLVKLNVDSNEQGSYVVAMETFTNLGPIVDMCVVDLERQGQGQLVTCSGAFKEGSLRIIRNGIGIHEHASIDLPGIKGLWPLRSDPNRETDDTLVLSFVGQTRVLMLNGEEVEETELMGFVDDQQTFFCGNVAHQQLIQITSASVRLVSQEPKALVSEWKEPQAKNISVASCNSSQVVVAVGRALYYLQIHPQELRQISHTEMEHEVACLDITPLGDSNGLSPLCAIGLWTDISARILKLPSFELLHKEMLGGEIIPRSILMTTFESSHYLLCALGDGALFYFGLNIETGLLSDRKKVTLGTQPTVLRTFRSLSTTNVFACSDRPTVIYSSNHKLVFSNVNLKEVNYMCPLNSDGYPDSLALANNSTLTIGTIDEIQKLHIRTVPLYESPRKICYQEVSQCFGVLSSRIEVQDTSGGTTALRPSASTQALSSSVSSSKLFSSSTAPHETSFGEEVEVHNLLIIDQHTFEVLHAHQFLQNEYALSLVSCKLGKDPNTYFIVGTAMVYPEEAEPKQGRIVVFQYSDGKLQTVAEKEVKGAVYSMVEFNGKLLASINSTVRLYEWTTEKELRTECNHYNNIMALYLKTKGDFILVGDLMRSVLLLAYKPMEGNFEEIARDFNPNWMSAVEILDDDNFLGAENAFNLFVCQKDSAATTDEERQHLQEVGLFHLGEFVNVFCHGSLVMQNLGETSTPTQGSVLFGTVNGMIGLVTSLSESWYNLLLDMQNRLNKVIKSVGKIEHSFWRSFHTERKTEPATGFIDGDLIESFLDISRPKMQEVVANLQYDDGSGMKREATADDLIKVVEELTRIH

Take `O=C1CCC(N2C(=O)c3cccc(NCc4cccc(C(=O)NC5CCC(c6nc7ccccc7o6)CC5)c4)c3C2=O)C(=O)N1` (centres unmarked) [Example 16]: the GI50 (as a rule, the concentration that inhibits growth by half) was 4.07 nM in the experiment on Jurkat cells; 1.36 nM with Hep3B cells; 0.96 nM with NCI-H929 cells; 362 nM in the experiment on Raji cells; less than 100 nM in the experiment on HL60 cells. The DC50 (as a rule, the concentration giving 50% degradation) on GSPT1 was less than 100 nM.

As to `COc1ccc2nc([C@H]3CC[C@H](C(=O)Nc4cccc(CNc5cccc6c5C(=O)N(C5CCC(=O)NC5=O)C6=O)c4)CC3)sc2n1` (some centres unmarked) [Example 97], the GI50 in the experiment with SU-DHL-2 cells is 1.51 nM; in the experiment on THP-1 cells, 2.58 nM; in the experiment on Hep3B cells it was 0.46 nM; in the experiment with Raji cells it was 3.43 nM; with HL60 cells, less than 100 nM. Further, on GSPT1, the DC50 is less than 100 nM.

In the case of `COc1ccc(CNc2cccc3c2C(=O)N(C2CCC(=O)NC2=O)C3=O)cc1C(=O)N[C@H]1CC[C@H](c2nc3ccncc3n2C)CC1` (some centres unmarked) [Example 89], the GI50 in the experiment with SU-DHL-2 cells was 1.42 nM; in the experiment with Jurkat cells, 0.5 nM; in the experiment on THP-1 cells, 5.65 nM; in the experiment on HL60 cells it was less than 100 nM. Also, the DC50 on GSPT1 is less than 100 nM.

On to `COc1ccc2c(c1)nc([C@H]1CC[C@H](NC(=O)c3cc(CNc4cccc5c4C(=O)N(C4CCC(=O)NC4=O)C5=O)ccn3)CC1)n2C` (some centres unmarked) [Example 90], for which the GI50 in the experiment with THP-1 cells was 4.14 nM; in the experiment on NCI-H929 cells it was 0.93 nM; in the experiment with Raji cells, 5.88 nM; with HL60 cells it was less than 100 nM. The compound also showed a DC50 on GSPT1 of less than 100 nM.

Regarding `COc1ccc2c(c1)nc([C@H]1CC[C@H](COc3cc(CNc4cccc5c4C(=O)N(C4CCC(=O)NC4=O)C5=O)ccn3)CC1)n2C` (some centres unmarked) [Example 75], the GI50 in the experiment on Toledo cells is 0.45 nM; in the experiment with SU-DHL-2 cells, 0.93 nM; in the experiment with Jurkat cells, 0.4 nM; in the experiment with Raji cells it was 1.79 nM; in the experiment with HL60 cells, less than 100 nM. On GSPT1, the DC50 was less than 100 nM.

For the compound `Cn1c2cnccc2nc1[C@H]1CC[C@H](N2Cc3ccc(CNc4cccc5c4C(=O)N(C4CCC(=O)NC4=O)C5=O)cc3C2=O)CC1` (some centres unmarked) [Example 70], the GI50 was 22.3 nM with SU-DHL-2 cells, 5.21 nM in the experiment with Hep3B cells, 1.63 nM in the experiment on NCI-H929 cells and less than 100 nM in the experiment on HL60 cells. On GSPT1, this compound registered a DC50 of less than 100 nM.

As for `O=C1CCC(N2C(=O)c3cccc(NCc4cccc(NC(=O)[C@H]5CC[C@H](c6nc7cccnc7s6)CC5)c4F)c3C2=O)C(=O)N1` (some centres unmarked) [Example 81], the concentration for 50% growth inhibition (GI50) is 4.03 nM with Toledo cells; 5.62 nM in the experiment on SU-DHL-2 cells; 11.4 nM in the experiment on Jurkat cells; 0.33 nM with NCI-H929 cells; less than 100 nM in the experiment with HL60 cells. The compound also had a DC50 at GSPT1 of less than 100 nM.

With `CC(C)n1c(C2CCC(NC(=O)c3cccc(CNc4cccc5c4C(=O)N(C4CCC(=O)NC4=O)C5=O)c3)CC2)nc2cccnc21` (centres unmarked) [Example 83], the GI50 with THP-1 cells is 67.6 nM; with Hep3B cells, 7.88 nM; in the experiment with NCI-H929 cells it was 5.49 nM; with HL60 cells, less than 100 nM. For the same compound, the DC50 at GSPT1 is less than 100 nM.

For the origin of these results see patent US20250361239A1, “PROTEIN DEGRADERS AND USES THEREOF” (ZHUHAI YUFAN BIOTECHNOLOGIES CO., LTD., priority 2022, published 2025).
